What was measured:
PI 3-kinase beta [1] = target: T1, PI 3-kinase beta (Homo sapiens, UniProt P42338); assay: Cellular assay I1, p-Akt (S473) in Rat-1 cells, Surefire format; assay type: cell-based; details: non-asterisked data: version I1 (Surefire format), Rat-1 cells; read-out: Assay I PI3Kβ IC50
PI 4-kinase beta = PI 4-kinase beta (Homo sapiens, UniProt Q9UBF8); assay: Kinase Glo Luminescent Kinase Assay (Kglo), assay D; assay type: biochemical; details: read-out: Assay D PI4Kβ IC50
Method: Kinase Glo Luminescent Kinase Assay (Kglo) for Pb 3-Kinase Alpha (A), Pb 3-Kinase Beta (B), Vps34 (C), Pb 4-Kinase Beta (D)
The Kinase Glo Luminescent Kinase Assay (Promega, Madison/Wis., USA) is a homogeneous HTS method of measuring kinase activity by quantifying the amount of ATP remaining in solution following a kinase reaction.
L-α-phosphatidylinositol (PI), provided as 10 mg/ml solution in methanol, was transferred into a glass tube and dried under a nitrogen beam. It was then resuspended in 3% OctylGlucoside (1-0-n-octyl-beta-D-glucopyranoside) by vortexing and stored at 4° C. 5 μL of a mix of PI/OctylGlucoside with the PI 3-kinase alpha and PI 3-kinase beta subtypes, or Vps34 or PI 4-kinase beta were added. Kinase reactions were started by the addition of 5 μl of an ATP-mix containing in a final volume 10 μL 10 mM TRIS-HCl pH 7.5, 3 mM MgCl2, 50 mM NaCl, 0.05% CHAPS, 1 mM DTT and 1 μM ATP at room temperature.
All fits were performed with the program XLfit4 (ID Business Solutions, Guildford, UK).

[2] = system: IL-8-induced neutrophil shape change in human whole blood; assay: Whole blood neutrophil shape change assay (L); assay type: cell-based; details: Homo sapiens, Neutrophil, IL-8, human whole blood, read-out: Assay L WBSC IC50
PI 3-kinase gamma [3] = target: T2, PI 3-kinase gamma (Homo sapiens, UniProt P48736); assay: Cellular U937 AKT assay K1 (MSD); assay type: cell-based; details: U937 cells, K1 format; read-out: Assay K1 PI3Kγ IC50
T2 sequence (P48736 whole entry): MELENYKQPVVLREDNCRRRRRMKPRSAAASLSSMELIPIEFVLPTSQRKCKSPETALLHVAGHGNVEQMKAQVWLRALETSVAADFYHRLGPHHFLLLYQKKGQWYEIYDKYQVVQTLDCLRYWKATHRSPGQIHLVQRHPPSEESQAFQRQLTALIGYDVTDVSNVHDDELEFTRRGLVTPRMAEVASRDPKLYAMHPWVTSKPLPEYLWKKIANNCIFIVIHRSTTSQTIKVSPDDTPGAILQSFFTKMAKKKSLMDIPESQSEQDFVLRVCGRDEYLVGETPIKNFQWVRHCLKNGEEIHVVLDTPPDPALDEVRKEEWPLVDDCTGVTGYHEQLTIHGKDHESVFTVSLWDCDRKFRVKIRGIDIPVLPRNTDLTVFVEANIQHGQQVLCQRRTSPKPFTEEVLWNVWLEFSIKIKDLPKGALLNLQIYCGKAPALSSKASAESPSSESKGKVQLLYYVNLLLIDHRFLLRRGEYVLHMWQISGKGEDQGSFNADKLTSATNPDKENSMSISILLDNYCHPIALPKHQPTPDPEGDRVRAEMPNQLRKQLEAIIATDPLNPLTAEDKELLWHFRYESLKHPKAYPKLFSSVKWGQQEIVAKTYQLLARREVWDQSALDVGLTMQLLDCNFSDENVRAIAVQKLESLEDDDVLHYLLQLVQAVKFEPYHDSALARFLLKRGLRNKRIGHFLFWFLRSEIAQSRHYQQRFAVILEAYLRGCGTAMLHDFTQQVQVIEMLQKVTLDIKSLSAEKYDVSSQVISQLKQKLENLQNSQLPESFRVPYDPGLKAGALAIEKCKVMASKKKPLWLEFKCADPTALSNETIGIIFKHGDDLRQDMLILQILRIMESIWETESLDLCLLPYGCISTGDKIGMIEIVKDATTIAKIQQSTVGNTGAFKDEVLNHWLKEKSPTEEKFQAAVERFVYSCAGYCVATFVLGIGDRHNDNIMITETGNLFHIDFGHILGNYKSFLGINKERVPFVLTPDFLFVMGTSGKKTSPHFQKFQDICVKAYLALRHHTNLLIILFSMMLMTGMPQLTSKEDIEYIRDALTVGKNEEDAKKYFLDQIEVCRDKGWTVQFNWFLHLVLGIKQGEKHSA

Vps34 = Vps34 (Homo sapiens, UniProt Q8NEB9); assay: Kinase Glo Luminescent Kinase Assay (Kglo), assay C; assay type: biochemical; details: read-out: Assay C VPS34 IC50
PI 3-kinase gamma [4] = target: T2, PI 3-kinase gamma; assay: TR-FRET Adapta assay, assay E; assay type: biochemical; details: read-out: Assay E PI3Kγ IC50
[5] = Microsomal clearance assay (M); details: intrinsic clearance in rat liver microsomes
Method: The experiments were performed in 96-well glass plates at 37° C. on an automated Tecan EVO platform. Test compounds at a concentration of 10 mM in pure DMSO were diluted 1:1000 in water to 10 μM. […] Reactions were initiated by the addition of 150 μL of a cofactor solution containing 2 mM NADPH.

PI 3-kinase delta [6] = target: T3, PI 3-kinase delta (Homo sapiens, UniProt O00329); assay: TR-FRET Adapta assay, assay F; details: read-out: Assay F PI3Kδ IC50
Target sequence in this assay (O00329 whole entry): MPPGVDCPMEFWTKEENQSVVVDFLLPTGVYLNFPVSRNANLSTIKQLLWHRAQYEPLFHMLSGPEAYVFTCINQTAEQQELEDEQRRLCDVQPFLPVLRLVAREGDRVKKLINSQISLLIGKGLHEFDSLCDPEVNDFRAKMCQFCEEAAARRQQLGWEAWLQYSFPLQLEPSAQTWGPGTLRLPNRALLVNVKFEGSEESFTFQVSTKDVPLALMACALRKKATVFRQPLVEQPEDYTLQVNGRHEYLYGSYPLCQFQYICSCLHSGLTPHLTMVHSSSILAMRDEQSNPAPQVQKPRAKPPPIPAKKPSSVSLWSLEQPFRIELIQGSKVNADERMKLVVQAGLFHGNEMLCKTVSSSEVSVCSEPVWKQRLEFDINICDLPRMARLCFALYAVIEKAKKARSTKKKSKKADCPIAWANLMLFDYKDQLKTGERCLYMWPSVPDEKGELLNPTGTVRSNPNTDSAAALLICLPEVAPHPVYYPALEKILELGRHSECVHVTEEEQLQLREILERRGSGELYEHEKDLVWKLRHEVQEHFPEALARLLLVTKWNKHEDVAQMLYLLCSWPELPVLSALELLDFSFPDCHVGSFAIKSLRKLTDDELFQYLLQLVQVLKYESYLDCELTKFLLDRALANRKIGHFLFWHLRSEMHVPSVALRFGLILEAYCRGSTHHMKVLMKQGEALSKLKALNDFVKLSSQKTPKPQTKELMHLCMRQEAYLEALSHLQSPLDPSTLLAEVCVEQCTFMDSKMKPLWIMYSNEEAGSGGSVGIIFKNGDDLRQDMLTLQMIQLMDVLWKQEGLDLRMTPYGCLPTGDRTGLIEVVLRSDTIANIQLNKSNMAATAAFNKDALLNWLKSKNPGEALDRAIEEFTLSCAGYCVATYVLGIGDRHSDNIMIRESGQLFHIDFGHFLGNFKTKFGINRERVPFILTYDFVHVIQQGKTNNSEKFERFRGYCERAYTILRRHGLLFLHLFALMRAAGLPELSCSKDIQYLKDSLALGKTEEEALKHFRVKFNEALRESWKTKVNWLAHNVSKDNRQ
Target sequence in this assay (P27986 461-568 partner): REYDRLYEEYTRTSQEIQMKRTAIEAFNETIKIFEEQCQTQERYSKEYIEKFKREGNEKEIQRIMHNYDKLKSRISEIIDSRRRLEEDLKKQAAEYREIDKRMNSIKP
Method: TR-FRET Adapta Assay for PI 3-Kinase Gamma (E), PI 3-Kinase Delta (F)
The TR-FRET Adapta™ Universal Kinase Assay Kit was purchased from Invitrogen Corporation (Carlsbad/CA, USA) (Cat. No. PV5099).
PIK3CD substrate phosphatidylinositol (PI) was obtained from Invitrogen (vesicules consisting of 2 mM phosphatidylinositol (PI) in 50 mM HEPES pH7.5; Cat. No. PV5371). PIK3CG substrate phosphatidylinositol-4,5-bisphosphate (PIP(4,5)2 was obtained from Invitrogen (PIP2:PS large unilamellar vesicules consisting of 1 mM PIP2: 19 mM PS in 50 mM HEPES pH7.5, 3 mM MgCl2, 1 mM EGTA; Cat. No. PV5100).
Time-Resolved Fluorescence Resonance Energy Transfer (TR-FRET) is a technology based on energy transfer between two adjacent dyes, from an excited electron in one dye (the donor) to an electron of an adjacent dye (the acceptor) through resonance, then released as a photon. This energy transfer is detected by an increase in the fluorescence emission of the acceptor, and a decrease in the fluorescence emission of the donor. TR-FRET assays for protein kinases use a long-lifetime lanthanide Terbium or Europium chelates as the donor species which overcome interference from compound autofluorescence or light scatter from precipitated compounds, by introducing a delay after excitation by a flashlamp excitation source. Results are often expressed as a ratio of the intensities of the acceptor and donor fluorophores. The ratiometric nature of such a value corrects for differences in assay volumes between wells, as well as corrects for quenching effects due to colored compounds. The Adapta™ assay can be divided into two phases: a kinase reaction phase and an ADP detection phase. In the kinase reaction phase, all kinase reaction components are added to the well and the reaction is allowed to incubate for a set period of time specific for each kinase. […] In the presence of an inhibitor, the amount of ADP formed by the kinase reaction is reduced, and the resulting intact antibody-tracer interaction maintains a high TR-FRET signal.
50 nL of compound dilutions were dispensed onto white 384-well small volume polystyrene plate. Then 5 μL of either PI 3-kinase gamma or PI 3-kinase delta and lipid substrate (PI or PIP2:PS) followed by 5 μL of ATP (final assay volume 10 μL) are incubated at RT. The standard reaction buffer for the Adapta™ TR-FRET assay contained 10 mM Tris-HCl pH 7.5, 3 mM MgCl2, 50 mM NaCl, 1 mM DTT, 0.05% CHAPS 3-[(3-cholamidopropyl)dimethylammonio]-1-propanesulfonate).
Data are analyzed using Excel fit software or Graphpad Prism. IC50 values were derived by fitting a sigmoidal dose-response curve to a plot of assay readout over inhibitor concentration. All fits were performed with the program XLfit4 (ID Business Solutions, Guildford, UK). […] All fits were performed with the program XLfit4 (ID Business Solutions, Guildford, UK).

PI 3-kinase alpha [7] = target: T4, PI 3-kinase alpha (Homo sapiens, UniProt P42336); assay: Cellular assay H1, p-Akt (S473) in Rat-1 cells, Surefire format; assay type: cell-based; details: non-asterisked data: version H1 (Surefire format), Rat-1 cells; read-out: Assay H PI3Kα IC50
Target sequence in this assay (P42336 whole entry): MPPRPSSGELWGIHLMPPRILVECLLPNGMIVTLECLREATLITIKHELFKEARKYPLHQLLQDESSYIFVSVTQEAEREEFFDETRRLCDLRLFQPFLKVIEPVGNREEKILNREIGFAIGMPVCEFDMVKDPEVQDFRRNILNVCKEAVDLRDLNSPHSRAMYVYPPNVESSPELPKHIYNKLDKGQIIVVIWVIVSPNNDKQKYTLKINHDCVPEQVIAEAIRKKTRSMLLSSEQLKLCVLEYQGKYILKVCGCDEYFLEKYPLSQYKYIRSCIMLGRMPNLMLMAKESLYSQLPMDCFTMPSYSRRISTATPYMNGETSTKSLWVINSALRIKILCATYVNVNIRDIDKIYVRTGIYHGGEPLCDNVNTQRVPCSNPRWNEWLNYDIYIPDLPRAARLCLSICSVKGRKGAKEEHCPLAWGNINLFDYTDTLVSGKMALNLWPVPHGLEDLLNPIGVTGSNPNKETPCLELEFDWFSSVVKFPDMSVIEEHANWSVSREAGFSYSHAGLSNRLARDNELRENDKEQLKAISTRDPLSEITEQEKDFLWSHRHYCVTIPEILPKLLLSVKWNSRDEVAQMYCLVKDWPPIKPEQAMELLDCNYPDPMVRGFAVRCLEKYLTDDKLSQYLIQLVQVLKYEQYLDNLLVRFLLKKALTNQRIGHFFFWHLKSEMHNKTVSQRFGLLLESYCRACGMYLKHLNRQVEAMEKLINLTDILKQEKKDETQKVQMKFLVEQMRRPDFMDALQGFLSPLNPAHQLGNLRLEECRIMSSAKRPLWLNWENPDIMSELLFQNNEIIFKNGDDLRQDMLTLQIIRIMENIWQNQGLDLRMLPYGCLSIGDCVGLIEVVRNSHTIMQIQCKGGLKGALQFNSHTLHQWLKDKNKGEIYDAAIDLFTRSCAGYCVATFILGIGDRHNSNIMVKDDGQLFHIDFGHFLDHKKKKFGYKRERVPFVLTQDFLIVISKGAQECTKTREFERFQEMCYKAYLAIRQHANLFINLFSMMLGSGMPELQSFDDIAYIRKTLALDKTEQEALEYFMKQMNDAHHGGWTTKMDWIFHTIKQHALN
Target sequence in this assay (Q63787 whole entry partner): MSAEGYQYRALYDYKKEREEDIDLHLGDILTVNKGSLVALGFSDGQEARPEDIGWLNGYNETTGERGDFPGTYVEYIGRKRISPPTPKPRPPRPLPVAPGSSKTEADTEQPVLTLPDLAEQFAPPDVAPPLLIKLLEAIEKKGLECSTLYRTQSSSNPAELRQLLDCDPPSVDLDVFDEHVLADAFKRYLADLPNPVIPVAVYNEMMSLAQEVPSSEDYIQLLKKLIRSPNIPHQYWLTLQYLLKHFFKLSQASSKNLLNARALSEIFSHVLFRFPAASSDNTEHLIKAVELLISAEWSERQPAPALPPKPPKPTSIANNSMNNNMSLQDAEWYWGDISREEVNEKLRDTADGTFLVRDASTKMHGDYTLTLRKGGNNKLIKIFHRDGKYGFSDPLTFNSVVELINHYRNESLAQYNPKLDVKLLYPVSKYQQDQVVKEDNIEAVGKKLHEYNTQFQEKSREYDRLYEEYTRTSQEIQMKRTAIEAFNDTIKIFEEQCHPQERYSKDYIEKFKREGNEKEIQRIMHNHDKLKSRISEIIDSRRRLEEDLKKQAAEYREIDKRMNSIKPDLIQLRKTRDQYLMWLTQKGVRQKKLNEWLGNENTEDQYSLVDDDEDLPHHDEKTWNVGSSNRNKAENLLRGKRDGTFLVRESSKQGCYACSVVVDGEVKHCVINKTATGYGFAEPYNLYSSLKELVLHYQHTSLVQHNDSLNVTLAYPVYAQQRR

PI 3-kinase delta [8] = target: T3, PI 3-kinase delta; assay: Cellular assay J1, p-Akt (S473) in Rat-1 cells, Surefire format; assay type: cell-based; details: non-asterisked data: version J1 (Surefire format), Rat-1 cells; read-out: Assay J PI3Kδ IC50
Target sequence in this assay (O00329 whole entry): as the sequence (O00329 whole entry) above
Target sequence in this assay (Q63787 whole entry partner): as the sequence (Q63787 whole entry partner) above

PI 3-kinase alpha [9] = target: T4, PI 3-kinase alpha; assay: Kinase Glo Luminescent Kinase Assay (Kglo), assay A; assay type: biochemical; details: read-out: Assay A PI3Kα IC50
Target sequence in this assay (P42336 whole entry): as the sequence (P42336 whole entry) above

mTOR = mTOR (Homo sapiens, UniProt P42345); assay: Lanthascreen kinase binding assay, assay G; details: read-out: Assay G mTOR IC50
Method: Lanthascreen™ Kinase Binding Assay for mTOR (G)
Binding of an inhibitor to the kinase competes for binding with the tracer, resulting in a loss of FRET.
50 nL of compound dilutions were dispensed onto white 384-well small volume polystyrene plate.

PI 3-kinase beta [10] = target: T1, PI 3-kinase beta; assay: Kinase Glo Luminescent Kinase Assay (Kglo), assay B; assay type: biochemical; details: read-out: Assay B PI3Kβ IC50

Sequence of PI 4-kinase beta (Q9UBF8 whole entry): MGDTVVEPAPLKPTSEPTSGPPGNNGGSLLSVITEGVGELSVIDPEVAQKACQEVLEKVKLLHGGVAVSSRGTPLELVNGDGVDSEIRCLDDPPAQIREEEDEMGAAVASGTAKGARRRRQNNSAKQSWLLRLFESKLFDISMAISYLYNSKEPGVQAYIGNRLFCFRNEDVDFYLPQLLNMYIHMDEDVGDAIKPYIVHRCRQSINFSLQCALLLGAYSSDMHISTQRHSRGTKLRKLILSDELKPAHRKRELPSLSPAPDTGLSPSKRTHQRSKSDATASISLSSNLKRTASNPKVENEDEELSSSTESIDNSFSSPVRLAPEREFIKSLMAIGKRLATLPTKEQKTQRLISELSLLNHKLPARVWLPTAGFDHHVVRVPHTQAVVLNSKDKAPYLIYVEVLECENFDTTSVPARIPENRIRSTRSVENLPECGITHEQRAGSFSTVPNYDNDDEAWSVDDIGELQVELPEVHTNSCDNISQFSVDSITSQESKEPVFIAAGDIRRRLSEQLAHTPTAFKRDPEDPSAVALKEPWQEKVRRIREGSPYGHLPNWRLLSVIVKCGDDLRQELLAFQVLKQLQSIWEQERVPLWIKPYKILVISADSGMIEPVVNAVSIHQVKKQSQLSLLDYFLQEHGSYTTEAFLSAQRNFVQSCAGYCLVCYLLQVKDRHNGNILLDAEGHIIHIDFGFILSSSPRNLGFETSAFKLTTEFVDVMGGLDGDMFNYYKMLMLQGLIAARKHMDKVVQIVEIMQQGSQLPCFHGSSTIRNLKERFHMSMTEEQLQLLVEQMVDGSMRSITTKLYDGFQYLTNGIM

SMILES | IC50 (PI 3-kinase beta [1]) [µM] | IC50 (PI 4-kinase beta) [µM] | IC50 [2] [µM] | IC50 (PI 3-kinase gamma [3]) [µM] | IC50 (Vps34) [µM] | IC50 (PI 3-kinase gamma [4]) [µM] | Assay M RLM CI(int) [5] [µL/min/mg] | IC50 (PI 3-kinase delta [6]) [µM] | IC50 (PI 3-kinase alpha [7]) [µM] | IC50 (PI 3-kinase delta [8]) [µM] | IC50 (PI 3-kinase alpha [9]) [µM] | IC50 (mTOR) [µM] | IC50 (PI 3-kinase beta [10]) [µM]
Cc1ncc(-c2nc(-c3cc(S(=O)(=O)N4CCNC(C(F)(F)F)C4)ccc3C)cnc2N)s1 (stereo not shown) [Example 118, 5-(2-Methyl-5-(3-(trifluoromethyl)piperazin-1-ylsulfonyl)phenyl)-3-(2-methylthiazol-5-yl)pyrazin-2-amine] | 1.59 | 4.72 | 0.898 | 0.102 | 1.46 | 0.011 | 264 | 0.13 | 0.63 | 0.53 | 0.03 | 0.46 | 0.47
COc1ccncc1-c1nc(-c2cc(S(=O)(=O)NCCC(C)(C)O)ccc2C)cnc1N [Example 119.2] | 4.07 | > 9.1 | 2.18 | 0.333 | > 9.1 | 0.05 | 101 | 0.25 | 2.74 | 2.38 | 0.45 | > 9.1 | > 9.1
Cc1ccc(S(=O)(=O)NCCC(C)(C)O)cc1-c1cnc(N)c(-c2cnn(C)c2)n1 [Example 119.16] | 3.7 | 6.61 | 1.24 | 0.081 | 6.23 | 0.022 | 21 | 0.19 | 4.01 | 2.35 | 0.39 | > 9.1 | 3.79
Cc1ccc(S(=O)(=O)NCCC(C)(C)O)cc1-c1cnc(N)c(-c2ccncc2)n1 [Example 119.27] | 9.24 | 5.75 | 0.726 | 0.128 | > 9.1 | 0.035 | 87 | 0.12 | 0.47 | 0.91 | 0.17 | 4.78 | 4.97
Cc1cc(-c2nc(-c3cc(S(=O)(=O)NCCC(C)(C)O)ccc3C)cnc2N)ccn1 [Example 119.28] | > 10 | 4.41 | 0.963 | 0.179 | > 9.1 | 0.049 | 44 | 0.19 | 1.25 | 2.15 | 0.23 | 6 | 7.38
Cc1ccc(S(=O)(=O)NCCC(C)(C)O)cc1-c1cnc(N)c(-c2cnn(C(C)C)c2)n1 [Example 119.31] | 6.99 | 3.74 | 1.66 | 0.046 | > 9.1 | 0.007 | 79 | 0.11 | 2.83 | 1.24 | 0.16 | 2.23 | 7.85
Cc1ccc(S(=O)(=O)NCCC(C)(C)O)cc1-c1cnc(N)c(-c2cn[nH]c2)n1 [Example 119.33] | > 10 | 1 | 0.601 | 0.73 | > 9.1 | 0.014 | 50 | 0.26 | 5.51 | 3.59 | 0.16 | > 9.1 | 0.69
CCn1cc(-c2nc(-c3cc(S(=O)(=O)NCCC(C)(C)O)ccc3C)cnc2N)cn1 [Example 119.34] | 7.42 | 4.25 | 1.49 | 0.041 | > 9.1 | 0.013 | 49 | 0.22 | 2.27 | 1.27 | 0.18 | 6.59 | 3.51
Cc1ccc(S(=O)(=O)NCCC(C)(C)O)cc1-c1cnc(N)c(-c2cnn(Cc3ccccn3)c2)n1 [Example 119.37] | 2.87 | 5.3 | 0.581 | 0.093 | > 9.1 | 0.024 | 78 | 0.04 | 3.02 | 1.14 | 0.18 | > 9.1 | 3
Cc1ccc(S(=O)(=O)NOCC(C)(C)O)cc1-c1cnc(N)c(-c2cn(C)nc2C)n1 [Example 125, 3-(5-Amino-6-(1,3-dimethyl-1H-pyrazol-4-yl)pyrazin-2-yl)-N-(2-hydroxy-2-methylpropoxy)-4-methylbenzenesulfonamide] | 3.47 | 7.6 | 0.879 | 0.051 | > 10 | 0.1 | 8 | 0.13 | 2.81 | 0.23 | 0.28 | > 10 | 6
CCN1CCC[C@@H]1CNS(=O)(=O)c1ccc(C)c(-c2cnc(N)c(-n3cncn3)n2)c1 [Example 127.12] | 1.54 | > 10 | 1.21 | 0.359 | > 10 | 0.091 | 233 | 0.57 | 6.56 | 0.8 | 3.5 | > 10 | 1.5
Cc1ccc(S(=O)(=O)NCC2(CO)CCCCC2)cc1-c1cnc(N)c(-n2cncn2)n1 [Example 127.52] | 6.28 | 3.1 | 1.77 | 0.052 | > 10 | 0.009 | >924 | 0.33 | 0.97 | 1.1 | 0.14 | 3.6 | 0.34
Cc1cc(-c2nc(-c3cc(S(=O)(=O)NC4CCC(C)(O)CC4)ccc3C)cnc2N)ccn1 (stereo not shown) [Example 129.19, 3-(5-amino-6-(2-methylpyridin-4-yl)pyrazin-2-yl)-N-(4-hydroxy-4-methylcyclohexyl)-4-methylbenzenesulfonamide] | > 10 | 7.2 | 3.43 | 0.251 | > 9.1 | 0.066 | 21 | 0.47 | 8.58 | 4.37 | 0.33 | 3.02 | 5.11

Reference: patent US10004732B2 (Novartis AG, priority 2014, dated 2018)
